According to US7173021B2, “Synthesis of temozolomide esters as potent anticancer pro-drugs for topical and transdermal applications in treatments of cancers” (Tianjin North Pharm Sci-Tech Co., Ltd., priority 2004, dated 2007):
≈ marks a conversion by molar mass, not a printed value.

Assays:
TJ905 (human glioma) = test: In vitro tumour cell growth inhibition (MTT), TJ905; format: cell-based; conditions: Table 2 experiment, 96 h
Description: (§1) Temozolomide (white powder), temozolomide acid (white powder) and temozolomide-8-carboxylate hexyl (white scale crystal) were made in house. For the estimation of in vitro tumour cell growth inhibition, MV3 (human melanoma), M14 (human melanoma), B16 and B16-BL6 (mouse melanoma), SHG-44, TJ899 and TJ905 (human glioma), MCF-7 (human breast), HCT-8 (human colon), A549 (human non small lung), Bel7402 (human hepatocellulor), and BGC-823 (human stomach) were used. All tumour cells were cultured in RPMI-1640 medium supplemented with 10% fetal bovine serum (FBS) at 37° C. in a humidified 5% CO2 incubator.
(§2) After being harvested from culture flasks, a cell suspension of 1×10^4/ml was made by using 1640 RPMI medium supplemented with 10% fetal bovine serum. 100 μl (contains 1000 tumour cells) of the cell suspension was seeded per well of 96-well flat-bottom Costar culture plates at 37° C. in a humidified 5% CO2 incubator for 24 hrs before introducing drugs. Each tested compounds was made for five different concentrations and 100 μl of the each concentration was introduced into parallel three wells; control wells were added with 100 μl of plain medium alone; fluorouracil (a chemotherapeutic antitumour drug) was used as the positive control. Cells were then incubated for 96 h. Proliferative response and cell death were determined using MTT (3-(4,5-dimethylthiazolyl)-2,5-diphenyl-tetrazolium bromide) assay.
(§3) MTT assay: Following incubation of cells with the tested compounds for 96 h, 100 μl of 0.4 mg/ml MTT in RPMI 1640 was added to each well and the plate was incubated at 37° C. for 4 h. The plate was then centrifuged and followed by removal of medium. 150 μl of DMSO was then added to dissolve formazan crystal. DMSO-added plates were placed on a plate shaker for 5 min and absorbance was measured spectrophotometrically at 540 nm (with reference wavelength at 450 nm) using a Benchmark microtiter plate reader (Bio-Rad 550, Bio-Rad Laboratories, CA, U.S.A.).
(§4) The IC50 was calculated from the curve of the tested compound concentrations against the inhibition rate of the tumour cells. Table 1 summarized the experiment results by using six human cancer cell lines, HCT-8 (colon carcinoma), A549 (non small lung carcinoma), MCF-7 (breast), Bel7402 (hepatocellulor carcinoma), BGC-823 (stomach adenocarcinoma), and MV3 (melanoma). Table 2 summarized the results from the experiment results by using two human melanoma cell lines, MV3 and M14, two mouse melanoma cell lines, B16 and B16-BL6, and three human glioma cell lines, TJ899, SHG-44 and TJ905.

B16 (mouse melanoma) = test: In vitro tumour cell growth inhibition (MTT), B16; format: cell-based; conditions: Table 2 experiment, 96 h
Description: as §1, §2, §3, §4

SHG-44 (human glioma) = test: In vitro tumour cell growth inhibition (MTT), SHG-44; format: cell-based; conditions: 96 h
Description: as §1, §2, §3, §4

B16-BL6 (mouse melanoma) = test: In vitro tumour cell growth inhibition (MTT), B16-BL6; format: cell-based; conditions: 96 h
Description: as §1, §2, §3, §4

TJ899 (human glioma) = test: In vitro tumour cell growth inhibition (MTT), TJ899; format: cell-based; conditions: Table 2 experiment, 96 h
Description: as §1, §2, §3, §4

MV3 (human melanoma) = test: In vitro tumour cell growth inhibition (MTT), MV3; format: cell-based; conditions: 96 h; for IC50: Homo sapiens
Description: as §1, §2, §3, §4

M14 (human melanoma) = test: In vitro tumour cell growth inhibition (MTT), M14; format: cell-based; conditions: Table 2 experiment, 96 h
Description: as §1, §2, §3, §4

[1] = tested on: Bel7402 (human hepatocellulor); test: In vitro tumour cell growth inhibition (MTT), Bel-7402; format: cell-based; conditions: Table 1 experiment, 96 h
Description: as §1, §2, §3
(§5) The IC50 was calculated from the curve of the tested compound concentrations against the inhibition rate of the tumour cells. […]

MCF-7 (human breast) = test: In vitro tumour cell growth inhibition (MTT), MCF-7; format: cell-based; conditions: MCF7, Table 1 experiment, 96 h
Description: as §1, §2, §3, §5

[2] = tested on: A549 (human non small lung); test: In vitro tumour cell growth inhibition (MTT), A549; format: cell-based; conditions: Table 1 experiment, 96 h
Description: as §1, §2, §3, §5

BGC-823 (human stomach) = test: In vitro tumour cell growth inhibition (MTT), BGC-823; format: cell-based; conditions: Table 1 experiment, 96 h
Description: as §1, §2, §3, §5

HCT-8 (human colon) = test: In vitro tumour cell growth inhibition (MTT), HCT-8; format: cell-based; conditions: Table 1 experiment, 96 h
Description: as §1, §2, §3, §5

[3] = In vitro permeation, Franz diffusion cell, silicone membrane; format: in vitro ADME; conditions: 37° C., 8 h
Text: Jacketed Franz-type diffusion cells were used throughout the study and the barrier (12) (skin or silicone membrane) was mounted between the two chambers (14, 16) (2.8–3.4 cm^2 available surface area) with the dermal side in contact with the receiver solution (FIG. 2). The diffusion chambers (10) comprised a barrier of skin or silicone membrane (12) mounted between two chambers (14, 16). A cap (18) formed the donor compartment (14). The second receptor compartment (16) contained a receptor cell (20) with a stirring bar (22), sampling port (24) and cover (26). The stirring bar (22) was stirred by means of a magnet plate (28) having a rotating magnet. The receptor compartment comprised a water jacket (30) having a water inlet (32) and a water outlet (34).
Three types of materials were used in permeation studies. • 1. Silicone membrane (Silastic Medical Grade, 500-5, Dow Corning 0.005 in thick) was cut into circular sections (2 cm diameter) and washed with double distilled water prior to use. • 2. Full-thickness rat skin was obtained from Male Wistar rats aged 10 to 12 weeks and weighing 250 to 300 g, which were sacrificed by cervical dislocation, the abdomen shaved and the intact skin removed by dissection. Following removal of fat tissue, the skin was cut into circular pieces and used immediately. • 3. Samples of adult human epidermis were purchased from the Stephen Kirby Skin Bank (UK). The samples were from the leg, were stored at −18° C. and used within one week. Experiments
The membrane (as detailed above) was mounted on the diffusion cell (10), on which the surface area available for diffusion of each cell was about 2.8–3.4 cm^2. The cell cap (18) was placed on the membrane (12), and it was sealed with Parafilm® connecting the cell cap, membrane, and receptor cell. The capacity of each receptor cell was around 25–26 ml, which was filled with receptor solution and was completely in contact with the membrane sheet. During the course of experiment, the solution was continuously stirred by teflon-coated magnetic bar (22) placed in the cell (20). The temperature was maintained at 37° C. by a thermostatic water pump that circulated the water through the jacket (30) surrounding the cell body. The system was allowed to equilibrate under these conditions for half an hour. Finally, the prepared sample solution (2 ml) was added into the donor cap cell, and it was sealed with Parafilm® to minimize the evaporation of donor solution. 1 ml of receptor solution was removed every 30 minutes for 5 hours and then every 60 minutes for a further 3 hours. The volumes withdrawn were always replaced with equal volumes of fresh receptor solution to maintain constant volume. The concentration of each sample solution was determined by using HPLC.
For every sample, six determinations were performed on human and rat skin, and three determinations were carried out through artificial silicone membrane.
As stated above, after the removal of receptor solution, the receiver compartment was refilled with an identical volume of receptor fluid. This causes of the dilution of receptor solution leading to an under determination of the sample concentration. As a consequence, it was necessary to mathematically correct each successive sample concentrations, in the present invention, which was determined by applying the following equation:
[formula] where Ct is the actual current concentration of drug in the receptor phase at time t, Cmt is the apparent (i.e. measured) current concentration of drug in the receptor phase, Vs is the sample volume withdrawn for analysis, Vr is the volume of receptor solution, and ΣCm is the summed total of the previous measured concentrations.
Finally, the amount of drug penetrating the skin per unit area was calculated by dividing the obtained concentrations by the surface area available for diffusion cell and this value was different for each individual cell. […]

[4] = Solubility in 10% v/v propylene glycol; format: physicochemical; conditions: ambient conditions, stirred 5 hours; for solubility at 5 h: 10% v/v propylene glycol aqueous solution, aqueous with cosolvent or surfactant or cyclodextrin, thermodynamic from solid, read-out: Solubility, Concentration
Description: The potential of temozolomide esters used as topical and transdermal prodrugs is first proven through studies of their solubility. That is a decreased trend of solubility in an aqueous solution with increase of the length of the ester hydrocarbon alkyl chain of the temozolomide esters. It is clear the solubility constantly decreases from the methyl ester to the octyl ester, while temozolomide itself is 3.0 mg/ml similar to that of the methyl ester. […] Similarly to the esters, the solubility of the temozolomide amide products in the aqueous solution is considerably lower than that of temozolomide.
The solubility of temozolomide and the temozolomide esters was determined in 10% v/v propylene glycol by stirring an excess of the solid products at room temperature for 5 hours. The mixtures were then filtered, diluted with sample solvent and analysed using HPLC.

pig liver esterase = test: Enzymatic metabolizing study with pig liver esterase (1H NMR); format: in vitro ADME; conditions: 37° C., pH 7.4 buffer; ester complete at 10 minutes; amide followed up to 8 hours
Description: First the present invention establishes the metabolised process of the temozolomide esters by pig liver esterase in vitro. ^1H NMR spectra 1 (FIG. 1) records the degradation profile of the temozolomide methyl ester under incubation condition (Rathbone D L, 1999). […] Finally, at 10 minutes, the intensity of the singlet at 3.58 ppm grows to the grade similar to the original of the two singlets at 3.63 and 3.65 ppm, which while are completely eliminated. […] This discovery establishes the solid foundation for the temozolomide esters to be considered as the potential anticancer pro-drugs.
Enzymatic metabolizing studies of the temozolomide methyl ester was carried out using pig liver esterase enzyme from Sigma [a suspension in 3.2 M ammonium sulphate solution pH 8; 200 unit/mg protein (14 mg protein/ml)]. • A. To a NMR tube 2 mg of the temozolomide methyl ester was added, followed by 0.2 ml of d6-DMSO, 0.5 ml D2O of pH 7.4 sulphate buffer and finally 50 μl of the enzyme solution. Record a ^1H NMR spectrum immediately, then the mixture was incubated at 37° C. and record a ^1H NMR spectrum at each 5 minutes time interval. […] The samples were dissolved in d6-DMSO in an NMR tube, 50 μl of enzyme solution was added and the solution incubated at 37° C.

O=NN(CCCl)C(=O)NCCCl [Carmustine]
IC50 (TJ905 (human glioma); Homo sapiens): 67.3 µg/mL (≈ 314 µM) | IC50 (B16 (mouse melanoma); Mus musculus): 7.75 µg/mL (≈ 36.2 µM) | IC50 (SHG-44 (human glioma); Homo sapiens, SHG-44, Table 2 experiment): 7.2 µg/mL (≈ 33.6 µM) | IC50 (B16-BL6 (mouse melanoma); Mus musculus, B16-BL6, Table 2 experiment): 13.1 µg/mL (≈ 61.3 µM) | IC50 (TJ899 (human glioma); Homo sapiens): 54.2 µg/mL (≈ 253 µM) | IC50 (MV3 (human melanoma); Table 2 experiment (separate)): 6.35 µg/mL (≈ 29.7 µM) | IC50 (M14 (human melanoma); Homo sapiens): 28.7 µg/mL (≈ 134 µM)

CN(C)/N=N/c1[nH]cnc1C(N)=O [Darcabazine]
IC50 TJ905 (TJ905 (human glioma)): 6.860 µg/mL (≈ 37.7 µM) | IC50 B16 (B16 (mouse melanoma)): 10.000 µg/mL (≈ 54.9 µM) | IC50 SHG-44 (SHG-44 (human glioma); Table 2 experiment): 1.261 µg/mL (≈ 6.92 µM) | IC50 B16-BL6 (B16-BL6 (mouse melanoma); Table 2 experiment): 61.765 µg/mL (≈ 339 µM) | IC50 TJ899 (TJ899 (human glioma)): 5.600 µg/mL (≈ 30.7 µM) | IC50 MV3 (MV3 (human melanoma); Table 2 experiment (separate)): 0.647 µg/mL (≈ 3.55 µM) | IC50 M14 (M14 (human melanoma)): 0.558 µg/mL (≈ 3.06 µM)

O=c1[nH]cc(F)c(=O)[nH]1 [Fluorouracil, fluorouracil, reference compound]
IC50 [1]: 0.495 µg/mL (≈ 3.81 µM) | IC50 (MCF-7 (human breast)): 0.629 µg/mL (≈ 4.84 µM) | IC50 [2]: 0.126 µg/mL (≈ 0.969 µM) | IC50 (MV3 (human melanoma); Table 1 experiment): 0.427 µg/mL (≈ 3.28 µM) | IC50 (BGC-823 (human stomach)): 0.722 µg/mL (≈ 5.55 µM) | IC50 (HCT-8 (human colon)): 0.606 µg/mL (≈ 4.66 µM)

CCOC(=O)c1ncn2c(=O)n(C)nnc12 [Temozolomide ethyl ester, Ethyl 3,4-dihydro-3-methyl-4-oxoimidazo[5,1-d]-1,2,3,5-tetrazine-8-carboxylate]
Permeation through synthetic silicone membrane ([3]; FIGS. 3-5): can not pass through the synthetic membrane easily | solubility at 5 h [4]: 2500 µg/mL (≈ 11200 µM)

CC(C)NC(=O)c1ncn2c(=O)n(C)nnc12 [Temozolomide isopropyl amide, 3-Methyl-N-(iso-propyl)-4-oxoimidazo[5,1-d]-1,2,3,5-tetrazine-8-carboxamide]
solubility at 5 h [4]: 2800 µg/mL (≈ 11900 µM)

COC(=O)c1ncn2c(=O)n(C)nnc12 [Temozolomide methyl ester, Methyl 3,4-dihydro-3-methyl-4-oxoimidazo[5,1-d]-1,2,3,5-tetrazine-8-carboxylate]
Permeation through synthetic silicone membrane ([3]; FIGS. 3-5): can not pass through the synthetic membrane easily | solubility at 5 h [4]: 3000 µg/mL (≈ 14300 µM) | Degradation to temozolomide acid by pig liver esterase (pig liver esterase): completely degraded and released temozolomide acid

CCCCOC(=O)c1ncn2c(=O)n(C)nnc12 [Temozolomide n-butyl ester, n-Butyl 3,4-dihydro-3-methyl-4-oxoimidazo[5,1-d]-1,2,3,5-tetrazine-8-carboxylate]
Permeation through synthetic silicone membrane ([3]; FIGS. 3-5): passed through the membrane far more efficiently | solubility at 5 h [4]: 1400 µg/mL (≈ 5570 µM)

CCCCCCCCOC(=O)c1ncn2c(=O)n(C)nnc12 [Temozolomide n-octyl ester, n-Octyl 3,4-dihydro-3-methyl-4-oxoimidazo[5,1-d]-1,2,3,5-tetrazine-8-carboxylate]
Permeation through synthetic silicone membrane ([3]; FIGS. 3-5, listed as n-octyl ester): passed through the membrane far more efficiently | Permeation through synthetic silicone membrane ([3]; FIGS. 3-5, listed as octyl ester): significantly less than the hexyl ester | solubility at 5 h [4]: 300 µg/mL (≈ 976 µM)

CCCOC(=O)c1ncn2c(=O)n(C)nnc12 [Temozolomide n-propyl ester, n-Propyl 3,4-dihydro-3-methyl-4-oxoimidazo[5,1-d]-1,2,3,5-tetrazine-8-carboxylate]
Permeation through synthetic silicone membrane ([3]; FIGS. 3-5): passed through the membrane far more efficiently | solubility at 5 h [4]: 2000 µg/mL (≈ 8430 µM)

CCC(C)NC(=O)c1ncn2c(=O)n(C)nnc12 (centres unmarked) [Temozolomide sec-butyl amide]
Solubility, Concentration [4]: 1800 µg/mL (≈ 7190 µM)

Cn1nnc2c(C(=O)NC(C)(C)C)ncn2c1=O [Temozolomide t-butyl amide, 3-Methyl-N-(tert-butyl)-4-oxoimidazo[5,1-d]-1,2,3,5-tetrazine-8-carboxamide]
solubility at 5 h [4]: 1400 µg/mL (≈ 5590 µM)
